Results as given in US10052330B2, “Substituted pyrido[3,4-b]pyrazines as Syk inhibitors” (HUTCHISON MEDIPHARMA LIMITED, priority 2011, dated 2018).

Legend:
Syk kinase = Syk kinase (Homo sapiens, UniProt P43405); assay: Syk kinase enzymatic assay (Kit-Tyr 2 Peptide); format: biochemical; conditions: 8 concentrations, 1 μM down to 0.0003 μM; upper bound of each range is 'less than'; read-out: IC50: Enzymatic Activity (Syk kinase)
RBL-2H3 cells = assay: IgE-induced Beta-hexosaminidase secretion in RBL-2H3 cells; format: cell-based; conditions: Rattus norvegicus, RBL-2H3, RBL-2H3 cells sensitized with SPE-7, stimulated with DNP-BSA; upper bound of each range is 'less than'; read-out: IC50, IgE-induced Beta-hexosaminidase secretion

Compound	IC50 (Syk kinase) [nM]	IC50 (RBL-2H3 cells) [nM]
NC(=O)NC[C@@H]1CCN(c2nc(-c3ccc(N4CCOCC4)cc3)cc3nccnc23)C1 [Compound 150, (S)-1-((1-(7-(4-morpholinophenyl)pyrido[4,3-b]pyrazin-5-yl)pyrrolidin-3-yl)methyl)urea]	100 to 1000	100 to 1000
NC(=O)NC[C@H]1CCN(c2nc(-c3ccc(N4CCOCC4)cc3)cc3nccnc23)C1 [Compound 151]	100 to 1000	100 to 1000
CN(C)c1ccc(-c2cc3nccnc3c(N3CC[C@H](CO)C3)n2)cc1 [Compound 164]	100 to 1000	100 to 1000
CN(C)c1ccc(-c2cc3nccnc3c(N3CC[C@@H](CO)C3)n2)cc1 [Compound 165]	100 to 1000	1 to 100
CN(C)c1ccc(-c2cc3nccnc3c(NCCS(N)(=O)=O)n2)cc1 [Compound 166]	100 to 1000	100 to 1000
c1cnc2c(NCCc3c[nH]cn3)nc(-c3ccc(N4CCOCC4)cc3)cc2n1 [Compound 172]	100 to 1000	100 to 1000
CC(O)[C@H]1CCN(c2nc(-c3ccc(N4CCOCC4)cc3)cc3nccnc23)C1 (stereo partly drawn) [Compound 174, (S)-1-(1-(7-(4-morpholinophenyl)pyrido[4,3-b]pyrazin-5-yl)pyrrolidin-3-yl)ethanol]	100 to 1000	100 to 1000
CN(C)c1ccc(-c2cc3nccnc3c(NCCC(N)=O)n2)cc1 [Compound 175, 3-(7-(4-(dimethylamino)phenyl)pyrido[4,3-b]pyrazin-5-ylamino)propanamide]	100 to 1000	100 to 1000
COc1ccc(-c2cc3nccnc3c(NCCC(N)=O)n2)cc1F [Compound 176]	100 to 1000	100 to 1000
NC(=O)CCNc1nc(-c2ccc(N3CCCC3)cc2)cc2nccnc12 [Compound 177]	100 to 1000	1 to 100
NC(=O)C1CCN(c2nc(-c3ccc(N4CCOCC4)cc3)cc3nccnc23)C1 (stereo not shown) [Compound 179]	1 to 100	100 to 1000
CN1CCN(c2ccc(-c3cc4nccnc4c(NCCCN)n3)cc2)CC1 [Compound 186]	1 to 100	100 to 1000
NCCCNc1nc(-c2ccc(N3CCOCC3)nc2)cc2nccnc12 [Compound 194]	100 to 1000	100 to 1000

Further lines, with some results ahead:

IC50 (Syk kinase) [nM]	Compound	IC50 (RBL-2H3 cells) [nM]
1 to 100	FC1=CC(CNc2nc(-c3ccc(N4CCOCC4)cc3)cc3nccnc23)CNC1 (stereo not shown) [Compound 157]	1 to 100
100 to 1000	c1cnc2c(NCc3cc[nH]n3)nc(-c3ccc(N4CCOCC4)cc3)cc2n1 [Compound 162]	100 to 1000
100 to 1000	NS(=O)(=O)CCNc1nc(-c2ccc(N3CCOCC3)cc2)cc2nccnc12 [Compound 167]	100 to 1000
100 to 1000	O=C1CCC(CNc2nc(-c3ccc(N4CCOCC4)cc3)cc3nccnc23)CN1 (stereo not shown) [Compound 168]	100 to 1000
1 to 100	FC1(F)CCNCC1CNc1nc(-c2ccc(N3CCOCC3)c(Cl)c2)cc2nccnc12 (stereo not shown) [Compound 205]	1 to 100
1 to 100	CC1CN(c2ccc(-c3cc4nccnc4c(NC[C@@H]4CNCCO4)n3)cc2)CCO1 (stereo partly shown) [Compound 208]	1 to 100
1 to 100	CCN1CCN(c2ccc(-c3cc4nccnc4c(NCC4CNCCO4)n3)cc2)CC1 (stereo not shown) [Compound 215]	1 to 100
1 to 100	OCCN1CCN(c2ccc(-c3cc4nccnc4c(NCC4CNCCO4)n3)cc2)CC1 (stereo not shown) [Compound 216]	1 to 100
1 to 100	CC(C)(O)CN1CCN(c2ccc(-c3cc4nccnc4c(NCC4CNCCO4)n3)cc2)CC1 (stereo not shown) [Compound 217]	1 to 100
1 to 100	c1cnc2c(NC[C@@H]3CNCCO3)nc(-c3ccc(N4CCCOCC4)cc3)cc2n1 [Compound 218]	1 to 100
1 to 100	Fc1cc(-c2cc3nccnc3c(NC[C@@H]3CNCCO3)n2)ccc1N1CCCOCC1 [Compound 219]	1 to 100
100 to 1000	c1cnc2c(NCC3CNCCCO3)nc(-c3ccc(N4CCOCC4)cc3)cc2n1 (stereo not shown) [Compound 220]	100 to 1000
1 to 100	Cc1cc(-c2cc3nccnc3c(NCC3CNCCCO3)n2)ccc1N1CCOCC1 (stereo not shown) [Compound 221]	1 to 100
100 to 1000	Fc1cc(-c2cc3nccnc3c(NCC3CNCCCO3)n2)ccc1N1CCOCC1 (stereo not shown) [Compound 222]	100 to 1000
100 to 1000	Clc1cc(-c2cc3nccnc3c(NCC3CNCCCO3)n2)ccc1N1CCOCC1 (stereo not shown) [Compound 223]	100 to 1000
1 to 100	FC1(F)CCN(c2ccc(-c3cc4nccnc4c(NC[C@@H]4CNCCO4)n3)cc2)C1 [Compound 226]	1 to 100
1 to 100	CN(c1ccc(-c2cc3nccnc3c(NCC3CNCCO3)n2)cc1)S(C)(=O)=O (stereo not shown) [Compound 228]	100 to 1000
1 to 100	FC1(F)CCN(c2ccc(-c3cc4nccnc4c(NC[C@@H]4CNCCO4)n3)cc2)CC1 [Compound 229]	1 to 100
1 to 100	F[C@H]1CCN(c2ccc(-c3cc4nccnc4c(NCC4CNCCO4)n3)cc2)C1 (stereo partly shown) [Compound 231]	1 to 100
